Laboratory results taken from article doi:10.1101/2021.06.16.448762v1 (biorxiv, 2021).

What was measured:
GgNAD-MEβ2 = test: NADH formation at […] nm; type: biochemical, Gynandropsis gynandra; details: read-out: Km malate; no aspartate; 4 mM NAD, 10 mM MnCl2, MES pH 6.2-6.4
ThNAD-MEβ1 = test: NADH formation at […] nm; type: biochemical, Tarenaya hassleriana; details: read-out: Km malate; 4 mM NAD, 10 mM MnCl2, MES pH 6.2-6.4
GgNAD-MEα/β2 = test: NADH formation at […] nm; type: biochemical, Gynandropsis gynandra; details: read-out: Km malate; no aspartate; 4 mM NAD, 10 mM MnCl2, MES pH 6.2-6.4
ThNAD-MEα/β1 = test: NADH formation at […] nm; type: biochemical, Tarenaya hassleriana; details: read-out: Km malate; 4 mM NAD, 10 mM MnCl2, MES pH 6.2-6.4
GgNAD-MEα = test: NADH formation at […] nm; type: biochemical, Gynandropsis gynandra; details: read-out: Km malate; 4 mM NAD, 10 mM MnCl2, MES pH 6.2-6.4
ThNAD-MEα = test: NADH formation at […] nm; type: biochemical, Tarenaya hassleriana; details: read-out: Km malate; 4 mM NAD, 10 mM MnCl2, MES pH 6.2-6.4
ThNAD-MEα/β2 = test: NADH formation at […] nm; type: biochemical, Tarenaya hassleriana; details: read-out: Km malate; 4 mM NAD, 10 mM MnCl2, MES pH 6.2-6.4
ThNAD-MEβ2 = test: NADH formation at […] nm; type: biochemical, Tarenaya hassleriana; details: read-out: Km malate; 4 mM NAD, 10 mM MnCl2, MES pH 6.2-6.4
purified protein = substrate: O=C(O)C[C@H](O)C(=O)O; test: purified protein; details: no aspartate; 4 mM NAD, 10 mM MnCl2, MES pH 6.2-6.4; pH 6.0

Row | Km (GgNAD-MEβ2) | Km (ThNAD-MEβ1) | Km (GgNAD-MEα/β2) | Km (ThNAD-MEα/β1) | Km (GgNAD-MEα) | Km (ThNAD-MEα) | Km (ThNAD-MEα/β2) | Km (ThNAD-MEβ2) | Molecule | Km (purified protein) | kcat (purified protein)
1 | 2.6 ± 1 mM | 9.2 ± 2.3 mM | 3.5 ± 0.5 mM | 6.6 ± 1.6 mM | 3.1 ± 0.4 mM | 5.4 ± 1.3 mM | 3.4 ± 1 mM | 6.8 ± 1.7 mM | O=C(O)C[C@H](O)C(=O)O [malate] | – | –
2 | – | – | – | – | – | – | – | – | AtNAD-MEα/β (Arabidopsis thaliana) (protein) chain 1: PTIVHKQGLDILHDPWFNKGTAFTMTERNRLDLRGLLPPNVMDSEQQIFRFMTDLKRLEEQARDGPSDPNALAKWRILNRLHDRNETMYYKVLINNIEEYAPIVYTPTVGLVCQNYSGLFRRPRGMYFSAEDRGEMMSMVYNWPAEQVDMIVVTDGSRILGLGDLGVHGIGIAVGKLDLYVAAAGINPQRVLPVMIDVGTNNEKLRNDPMYLGLQQRRLEDDDYIDVIDEFMEAVYTRWPHVIVQFEDFQSKWAFKLLQRYRCTYRMFNDDVQGTAGVAIAGLLGAVRAQGRPMIDFPKMKIVVAGAGSAGIGVLNAARKTMARMLGNTETAFDSAQSQFWVVDAQGLITEGRENIDPEAQPFARKTKEMERQGLKEGATLVEVVREVKPDVLLGLSAVGGLFSKEVLEAMKGSTSTRPAIFAMSNPTKNAECTPQDAFSILGENMIFASGSPFKNVEFGNGHVGHCNQGNNMYLFPGIGLGTLLSGAPIVSDGMLQAASECLAAYMSEEEVLEGIIYPPISRIRDITKRIAAAVIKEAIEEDLVEGYREMDAREIQKLDEEGLMEYVENNMWNPEYPTLVYKDD chain 2: CIVHKRGADILHDPWFNKDTGFPLTERDRLGIRGLLPPRVMTCVQQCDRFIESFRSLENNTKGEPENVVALAKWRMLNRLHDRNETLYYRVLIDNIKDFAPIIYTPTVGLVCQNYSGLYRRPRGMYFSAKDKGEMMSMIYNWPAPQVDMIVITDGSRILGLGDLGVQGIGIPIGKLDMYVAAAGINPQRVLPIMLDVGTNNEKLLQNDLYLGVRQPRLEGEEYLEIIDEFMEAAFTRWPKAVVQFEDFQAKWAFGTLERYRKKFCMFNDDVQGTAGVALAGLLGTVRAQGRPISDFVNQKIVVVGAGSAGLGVTKMAVQAVARMAGISESEATKNFYLIDKDGLVTTERTKLDPGAVLFAKNPAEIREGASIVEVVKKVRPHVLLGLSGVGGIFNEEVLKAMRESDSCKPAIFAMSNPTLNAECTAADAFKHAGGNIVFASGSPFENVELENGKVGHVNQANNMYLFPGIGLGTLLSGARIVTDGMLQAASECLASYMTDEEVQKGILYPSINNIRHITAEVGAAVLRAAVTDDIAEGHGDVGPKDLSHMSKEDTVNYITRNMWFPVYSPLVHEK | 3.2 ± 0.4 mM | 30.7 ± 2.0 s⁻¹
